In patent US20080261810A1, “Insecticides Based on Neonicotinoids and Safeners” (priority 2004, published 2008):
Where two headings read alike, the source gives them in different places.

What was measured:
[1] = system: green peach aphid (Myzus persicae); format: in vivo
Protocol: To produce a suitable preparation of active compound, 1 part by weight of active compound is mixed with the stated amounts of solvent and emulsifier, and the concentrate is diluted with emulsifier-containing water to the desired concentration.
Cabbage leaves (Brassica oleracea) which are heavily infested by the green peach aphid (Myzus persicae) are treated by being dipped into the preparation of active compound of the desired concentration.
After the desired period of time, the kill in % is determined. 100% means that all aphids have been killed; 0% means that none of the aphids have been killed. The determined kill rates are entered into Colby's formula.

[2] = system: caterpillars of the diamond back moth (Plutella xylostella, sensitive strain); conditions: in vivo
Protocol: After the desired period of time, the kill in % is determined. 100% means that all caterpillars have been killed; 0% means that none of the caterpillars have been killed. The determined kill rates are entered into Colby's formula.

| SMILES | Mortality in % after 1^d ([1]; 0.8 ppm, active compound alone) [%] | Mortality in % after 1^d [2] [%] | Mortality in % after 1^d ([1]; in vivo) [%] |
| --- | --- | --- | --- |
| CN/C(=N\[N+](=O)[O-])NCc1cnc(Cl)s1 [Clothianidin, clothianidin] | 40 |  |  |
| O=[N+]([O-])/N=C1\NCCN1Cc1ccc(Cl)nc1 [Imidacloprid, imidacloprid] |  | 40 | 45 |
